Measurements: PubChem BioAssay AID256 (DTP/NCI, 2004)
Inconclusive results and toxic doses are left out.

Test system: CD2F1 mice, L1210 leukemia ip, survival T/C
Assay: NCI In Vivo Anticancer Drug Screen. Data for tumor model L1210 Leukemia (intraperitoneal) in CD2F1 (CDF1) mice
Settings: higher = longer survival
Summary of the method: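 Ratio T/C, where T is the treated-group value and C the vehicle-dosed control value, from mice implanted with a transplantable tumor.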

[1] = endpoint: mean survival time, dose: 25.0 mg/kg/injection, schedule: Q01DX009 (ip), vehicle: saline with Tween-80
[2] = endpoint: mean survival time, dose: 50.0 mg/kg/injection, schedule: Q01DX009 (ip), vehicle: saline with Tween-80
[3] = endpoint: mean survival time, dose: 100.0 mg/kg/injection, schedule: Q01DX001 (ip), vehicle: saline with Tween-80
[4] = endpoint: mean survival time, dose: 200.0 mg/kg/injection, schedule: Q01DX001 (ip), vehicle: saline with Tween-80
[5] = endpoint: mean survival time, dose: 100.0 mg/kg/injection, schedule: Q01DX009 (ip), vehicle: saline with Tween-80
[6] = endpoint: mean survival time, dose: 200.0 mg/kg/injection, schedule: Q01DX009 (ip), vehicle: saline with Tween-80
[7] = endpoint: mean survival time, dose: 100.0 mg/kg/injection, schedule: Q01DX001 (ip), vehicle: saline
[8] = endpoint: mean survival time, dose: 200.0 mg/kg/injection, schedule: Q01DX001 (ip), vehicle: saline
[9] = endpoint: mean survival time, dose: 400.0 mg/kg/injection, schedule: Q01DX001 (ip), vehicle: saline
[10] = endpoint: mean survival time, dose: 100.0 mg/kg/injection, schedule: Q04DX003 (ip), vehicle: saline with Tween-80
[11] = endpoint: mean survival time, dose: 200.0 mg/kg/injection, schedule: Q04DX003 (ip), vehicle: saline with Tween-80
[12] = endpoint: mean survival time, dose: 400.0 mg/kg/injection, schedule: Q04DX003 (ip), vehicle: saline with Tween-80

## CCOC(=O)NNC(=O)OCC
endpoint: mean survival time, dose: 12.5 mg/kg/injection, schedule: Q01DX009 (ip), vehicle: saline with Tween-80
  T/C: 97 % of control
endpoint: mean survival time, dose: 12.5 mg/kg/injection, schedule: Q01DX009 (ip), vehicle: saline
  T/C: 90 % of control
[1]
  T/C: 96 % of control
endpoint: mean survival time, dose: 25.0 mg/kg/injection, schedule: Q01DX009 (ip), vehicle: saline
  T/C: 101 % of control
[2]
  T/C: 102 % of control
endpoint: mean survival time, dose: 50.0 mg/kg/injection, schedule: Q01DX009 (ip), vehicle: saline
  T/C: 105 % of control

## Cc1cc(OCC(=O)O)ccc1Cl
endpoint: mean survival time, dose: 50.0 mg/kg/injection, schedule: Q01DX009 (ip), vehicle: Klucel (hydroxypropylcellulose) (HPC)
  T/C: 100 % of control
endpoint: mean survival time, dose: 100.0 mg/kg/injection, schedule: Q01DX009 (ip), vehicle: Klucel (hydroxypropylcellulose) (HPC)
  T/C: 104 % of control
endpoint: mean survival time, dose: 200.0 mg/kg/injection, schedule: Q01DX009 (ip), vehicle: Klucel (hydroxypropylcellulose) (HPC)
  T/C: 104 % of control

## O=C(Sc1cccc2ccccc12)c1ccc([N+](=O)[O-])cc1
[3]
  T/C: 105 % of control
[4]
  T/C: 92 % of control
endpoint: mean survival time, dose: 400.0 mg/kg/injection, schedule: Q01DX001 (ip), vehicle: saline with Tween-80
  T/C: 101 % of control

## COc1ccc(-c2cc(C(=O)Nc3cc(C(F)(F)F)cc(C(F)(F)F)c3)c3ccccc3n2)cc1
endpoint: median survival time, dose: 25.0 mg/kg/injection, schedule: Q01DX005 (ip), vehicle: DMSO
  T/C: 100 % of control
endpoint: median survival time, dose: 50.0 mg/kg/injection, schedule: Q01DX005 (ip), vehicle: DMSO
  T/C: 98 % of control
endpoint: median survival time, dose: 100.0 mg/kg/injection, schedule: Q01DX005 (ip), vehicle: DMSO
  T/C: 98 % of control
endpoint: median survival time, dose: 200.0 mg/kg/injection, schedule: Q01DX005 (ip), vehicle: DMSO
  T/C: 109 % of control
endpoint: median survival time, dose: 400.0 mg/kg/injection, schedule: Q01DX005 (ip), vehicle: DMSO
  T/C: 106 % of control

## O.O.O=C(O)c1ccccc1C(=O)O.[NH-]C1CCCCC1[NH-].[Pt+2]
endpoint: mean survival time, dose: 3.13 mg/kg/injection, schedule: Q04DX003 (ip), vehicle: dextrose
  T/C: 109 % of control
endpoint: mean survival time, dose: 6.25 mg/kg/injection, schedule: Q04DX003 (ip), vehicle: dextrose
  T/C: 106 % of control
endpoint: mean survival time, dose: 25.0 mg/kg/injection, schedule: Q04DX003 (ip), vehicle: dextrose
  T/C: 106 % of control
endpoint: mean survival time, dose: 50.0 mg/kg/injection, schedule: Q04DX003 (ip), vehicle: dextrose
  T/C: 95 % of control

## CN(C)c1ccc(/C=N/NC(=O)c2ccccc2N)cc1
[5]
  T/C: 92 % of control
[6]
  T/C: 91 % of control
endpoint: mean survival time, dose: 400.0 mg/kg/injection, schedule: Q01DX009 (ip), vehicle: saline with Tween-80
  T/C: 91 % of control

## CC(=O)Nc1cc([N+](=O)[O-])cc([N+](=O)[O-])c1O
[3]
  T/C: 101 % of control
[4]
  T/C: 98 % of control

## C[Si](C)(C)C1C=CC=C1
endpoint: mean survival time, dose: 100.0 mg/kg/injection, schedule: Q04DX002 (ip), vehicle: saline with Tween-80
  T/C: 100 % of control
endpoint: mean survival time, dose: 200.0 mg/kg/injection, schedule: Q04DX002 (ip), vehicle: saline with Tween-80
  T/C: 100 % of control
endpoint: mean survival time, dose: 400.0 mg/kg/injection, schedule: Q04DX002 (ip), vehicle: saline with Tween-80
  T/C: 92 % of control

## CCCCCCCCCCCCCCCC(=O)NCCN(CC)CC
[1]
  T/C: 95 % of control
[2]
  T/C: 98 % of control
endpoint: mean survival time, dose: 75.0 mg/kg/injection, schedule: Q04DX003 (ip), vehicle: saline with Tween-80
  T/C: 97 % of control
endpoint: mean survival time, dose: 150.0 mg/kg/injection, schedule: Q01DX001 (ip), vehicle: saline
  T/C: 98 % of control

## CCN1C(=O)CC(O)C1=O (configuration not stated)
[7]
  T/C: 105 % of control
[8]
  T/C: 103 % of control
[9]
  T/C: 103 % of control

## COC(=O)C(c1ccccc1)C(SCc1ccccc1)c1ccccc1 (configuration not stated)
[10]
  T/C: 103 % of control
[11]
  T/C: 95 % of control
[12]
  T/C: 98 % of control

## CC(=O)OCC1OC(c2nn(C(C)=O)c(C(N)=O)c2O)C(OC(C)=O)C1OC(C)=O (configuration not stated)
endpoint: median survival time, dose: 25.0 mg/kg/injection, schedule: Q01DX005 (ip), vehicle: saline
  T/C: 153 % of control
endpoint: median survival time, dose: 50.0 mg/kg/injection, schedule: Q01DX005 (ip), vehicle: saline
  T/C: 166 % of control
endpoint: median survival time, dose: 100.0 mg/kg/injection, schedule: Q01DX005 (ip), vehicle: saline
  T/C: 96 % of control

## O=C(CBr)c1cc2ncccc2c2ccccc12
endpoint: mean survival time, dose: 100.0 mg/kg/injection, schedule: Q01DX009 (ip), vehicle: other
  T/C: 101 % of control

## Fc1ccccc1OCC1CO1 (configuration not stated)
[7]
  T/C: 114 % of control
[8]
  T/C: 110 % of control
[9]
  T/C: 108 % of control

## C=Cc1ccc(C(N)=O)cc1
[10]
  T/C: 101 % of control
[11]
  T/C: 98 % of control
[12]
  T/C: 96 % of control

## C=CC/C=C/CCCCCC
[2]
  T/C: 114 % of control
[5]
  T/C: 96 % of control
[6]
  T/C: 107 % of control
